# Reference: ChEMBL document CHEMBL1141406, “Design, synthesis, and evaluation of naphthalene-sulfonamide antagonists of human CCR8” (J Med Chem, 2007)
# Tests used:
# [1] = target: T1, C-C chemokine receptor type 8 (Homo sapiens, UniProt P51685); assay: Binding affinity to human CCR8 expressed in L1.2 cells by FMAT assay; type: cell-based
# [2] = Stability in mouse plasma; type: ADME, cell-free
# [3] = target: T1, C-C chemokine receptor type 8; assay: Antagonist activity against human CCR8 expressed in CHO/Galpha16 cells assessed as inhibition of CCL1-induced increase of intracellular calcium by FLIPR assay; type: functional, cell-based
# [4] = Apparent permeability from apical to basolateral side of Caco-2 cells; type: ADME, cell-based; settings: human
# [5] = Apparent permeability from basolateral to apical side of Caco-2 cells; type: ADME, cell-based; settings: human
# [6] = Intrinsic clearance in liver microsomes; settings: human
# [7] = Ratio of apparent permeability from basolateral to apical over apical to basolateral in Caco-2 cells; settings: human, read-out: Selectivity ratio
# Rattus norvegicus [8] = species on record: Rattus norvegicus; assay: Inhibition of rat calcium channel L type at dihydropyridine site at 10 uM
# [9] = target: T2, Cholecystokinin receptor type A (Rattus norvegicus) (UniProt P30551); assay: Inhibition of rat CCKA at 10 uM
# T2 sequence (whole entry): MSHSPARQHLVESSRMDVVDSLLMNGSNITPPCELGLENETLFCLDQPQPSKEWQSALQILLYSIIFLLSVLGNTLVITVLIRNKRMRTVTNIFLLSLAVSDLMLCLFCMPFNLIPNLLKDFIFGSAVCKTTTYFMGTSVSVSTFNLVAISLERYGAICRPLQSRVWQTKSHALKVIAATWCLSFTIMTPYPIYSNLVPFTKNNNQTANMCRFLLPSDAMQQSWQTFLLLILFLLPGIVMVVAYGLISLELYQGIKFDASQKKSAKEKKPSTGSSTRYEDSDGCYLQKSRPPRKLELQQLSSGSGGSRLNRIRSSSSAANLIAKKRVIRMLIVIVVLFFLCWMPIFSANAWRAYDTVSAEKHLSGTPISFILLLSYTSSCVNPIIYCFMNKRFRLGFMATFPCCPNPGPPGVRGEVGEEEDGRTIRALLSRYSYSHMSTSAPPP
# [10] = target: D(1A) dopamine receptor (Homo sapiens) (UniProt P21728); assay: Inhibition of human recombinant dopamine D1 receptor at 10 uM
# Sequence of D(1A) dopamine receptor (Homo sapiens) (P21728 whole entry): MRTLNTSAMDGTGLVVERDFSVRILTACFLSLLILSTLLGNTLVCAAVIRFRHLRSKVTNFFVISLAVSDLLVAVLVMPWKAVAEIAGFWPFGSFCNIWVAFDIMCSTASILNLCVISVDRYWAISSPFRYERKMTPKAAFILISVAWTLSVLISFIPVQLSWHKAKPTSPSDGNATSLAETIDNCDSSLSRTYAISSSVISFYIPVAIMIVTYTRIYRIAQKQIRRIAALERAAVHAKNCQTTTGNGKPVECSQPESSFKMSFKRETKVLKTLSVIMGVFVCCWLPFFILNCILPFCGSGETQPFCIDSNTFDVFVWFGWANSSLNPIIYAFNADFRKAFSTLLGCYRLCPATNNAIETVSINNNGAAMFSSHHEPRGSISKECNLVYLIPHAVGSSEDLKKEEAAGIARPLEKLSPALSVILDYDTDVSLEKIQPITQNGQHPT
# [11] = target: Sodium-dependent dopamine transporter (Rattus norvegicus) (UniProt P23977); assay: Inhibition of rat dopamine transporter at 10 uM
# [12] = target: Histamine H2 receptor (Rattus norvegicus) (UniProt P25102); assay: Inhibition of rat histamine H2 receptor at 10 uM
# Sequence of Histamine H2 receptor (Rattus norvegicus) (P25102 whole entry): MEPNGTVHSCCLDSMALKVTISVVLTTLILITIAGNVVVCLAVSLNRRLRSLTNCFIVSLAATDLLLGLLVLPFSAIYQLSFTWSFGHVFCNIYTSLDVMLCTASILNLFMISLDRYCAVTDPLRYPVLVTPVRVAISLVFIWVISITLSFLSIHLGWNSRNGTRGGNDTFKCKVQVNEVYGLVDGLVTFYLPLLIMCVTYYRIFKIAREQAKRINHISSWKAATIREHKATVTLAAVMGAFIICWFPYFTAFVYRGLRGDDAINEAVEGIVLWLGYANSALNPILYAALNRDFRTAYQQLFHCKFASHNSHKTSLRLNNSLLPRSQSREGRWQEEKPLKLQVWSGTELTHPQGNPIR
# [13] = target: Muscarinic acetylcholine receptor (Homo sapiens) (UniProt P20309+P08173+P11229+P08172+P08912); assay: Inhibition of peripheral non-selective guinea pig muscarinic receptor at 10 uM; type: protein assay; settings: Cavia porcellus, target entry is the homologue from another species
# Rattus norvegicus [14] = species on record: Rattus norvegicus; assay: Inhibition of rat non-selective opiate receptor at 10 uM
# Cytochrome P450 3A4 = Cytochrome P450 3A4 (Homo sapiens, UniProt P08684); assay: Inhibition of CYP3A4; type: ADME
# Sequence of Cytochrome P450 3A4 (P08684 whole entry): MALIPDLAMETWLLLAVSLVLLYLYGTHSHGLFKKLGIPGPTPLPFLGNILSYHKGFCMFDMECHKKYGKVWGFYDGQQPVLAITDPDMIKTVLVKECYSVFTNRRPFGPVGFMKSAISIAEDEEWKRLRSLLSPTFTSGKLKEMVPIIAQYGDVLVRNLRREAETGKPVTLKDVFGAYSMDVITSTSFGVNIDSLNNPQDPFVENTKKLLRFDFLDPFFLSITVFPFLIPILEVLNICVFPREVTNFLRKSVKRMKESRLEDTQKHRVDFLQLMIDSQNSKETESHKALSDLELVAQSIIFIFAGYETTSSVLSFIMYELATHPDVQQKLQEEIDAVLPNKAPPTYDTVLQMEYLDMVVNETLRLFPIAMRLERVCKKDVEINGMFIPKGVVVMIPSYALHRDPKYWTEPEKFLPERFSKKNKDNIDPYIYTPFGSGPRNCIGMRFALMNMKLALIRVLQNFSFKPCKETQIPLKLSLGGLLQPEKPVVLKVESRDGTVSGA
# [15] = Bioavailability in rat at 10 mg/kg, po and 1 mg/kg, iv; type: ADME, organism-based; settings: in vivo
# [16] = target: Voltage-gated inwardly rectifying potassium channel KCNH2 (Homo sapiens, UniProt Q12809); assay: Binding affinity to hERG expressed in HEK293 cells; type: cell-based
# Sequence of Voltage-gated inwardly rectifying potassium channel KCNH2 (Q12809 whole entry): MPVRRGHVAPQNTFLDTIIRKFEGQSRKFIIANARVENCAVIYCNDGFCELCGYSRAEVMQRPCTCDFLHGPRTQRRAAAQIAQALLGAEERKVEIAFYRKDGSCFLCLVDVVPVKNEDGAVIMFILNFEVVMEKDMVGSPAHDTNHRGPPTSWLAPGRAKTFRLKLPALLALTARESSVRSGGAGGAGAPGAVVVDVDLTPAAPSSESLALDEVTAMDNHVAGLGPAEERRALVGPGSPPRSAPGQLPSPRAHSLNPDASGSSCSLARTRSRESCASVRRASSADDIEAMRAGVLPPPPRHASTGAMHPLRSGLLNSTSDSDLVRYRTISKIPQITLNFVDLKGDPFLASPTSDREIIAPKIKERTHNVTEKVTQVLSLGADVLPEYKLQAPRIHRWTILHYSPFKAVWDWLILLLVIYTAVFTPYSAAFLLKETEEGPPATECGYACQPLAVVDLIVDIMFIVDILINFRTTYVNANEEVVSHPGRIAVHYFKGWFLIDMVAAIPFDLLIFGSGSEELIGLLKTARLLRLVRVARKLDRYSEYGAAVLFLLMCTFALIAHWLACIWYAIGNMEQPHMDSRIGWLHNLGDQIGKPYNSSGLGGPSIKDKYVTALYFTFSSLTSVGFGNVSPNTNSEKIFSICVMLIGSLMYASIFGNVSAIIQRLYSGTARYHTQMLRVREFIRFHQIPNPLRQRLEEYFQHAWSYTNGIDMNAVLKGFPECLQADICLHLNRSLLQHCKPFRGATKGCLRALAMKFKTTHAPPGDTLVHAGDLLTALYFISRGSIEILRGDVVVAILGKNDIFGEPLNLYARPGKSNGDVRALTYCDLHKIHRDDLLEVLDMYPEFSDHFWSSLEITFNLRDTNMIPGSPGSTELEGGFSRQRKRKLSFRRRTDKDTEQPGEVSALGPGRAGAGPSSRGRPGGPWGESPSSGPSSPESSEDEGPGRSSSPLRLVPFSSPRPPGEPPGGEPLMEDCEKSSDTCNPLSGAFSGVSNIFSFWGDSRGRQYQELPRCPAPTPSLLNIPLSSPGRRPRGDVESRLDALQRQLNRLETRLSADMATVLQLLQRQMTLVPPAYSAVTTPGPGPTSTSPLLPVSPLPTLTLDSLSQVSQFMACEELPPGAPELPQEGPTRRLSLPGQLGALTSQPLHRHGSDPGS
# [17] = Stability in rat at 10 mg/kg, po and 1 mg/kg, iv; type: ADME, organism-based; settings: in vivo
# [18] = Volume of distribution of steady state in rat at 10 mg/kg, po and 1 mg/kg, iv; type: ADME, organism-based; settings: in vivo, read-out: Vss
# [19] = Clearance in rat at 10 mg/kg, po and 1 mg/kg, iv; type: ADME, organism-based; settings: in vivo
# [20] = Bioavailability in dog at 10 mg/kg, po and 1 mg/kg, iv; type: ADME, organism-based, Canis lupus familiaris; settings: in vivo
# [21] = Stability in dog at 10 mg/kg, po and 1 mg/kg, iv; type: ADME, organism-based, Canis lupus familiaris; settings: in vivo
# [22] = Volume of distribution of steady state in dog at 10 mg/kg, po and 1 mg/kg, iv; type: ADME, organism-based, Canis lupus familiaris; settings: in vivo, read-out: Vss
# [23] = Clearance in dog at 10 mg/kg, po and 1 mg/kg, iv; type: ADME, organism-based, Canis lupus familiaris; settings: in vivo
# [24] = target: T3, 5-hydroxytryptamine receptor 1A (Homo sapiens) (UniProt P08908); assay: Inhibition of human recombinant 5HT1A receptor at 10 uM
# T3 sequence (whole entry): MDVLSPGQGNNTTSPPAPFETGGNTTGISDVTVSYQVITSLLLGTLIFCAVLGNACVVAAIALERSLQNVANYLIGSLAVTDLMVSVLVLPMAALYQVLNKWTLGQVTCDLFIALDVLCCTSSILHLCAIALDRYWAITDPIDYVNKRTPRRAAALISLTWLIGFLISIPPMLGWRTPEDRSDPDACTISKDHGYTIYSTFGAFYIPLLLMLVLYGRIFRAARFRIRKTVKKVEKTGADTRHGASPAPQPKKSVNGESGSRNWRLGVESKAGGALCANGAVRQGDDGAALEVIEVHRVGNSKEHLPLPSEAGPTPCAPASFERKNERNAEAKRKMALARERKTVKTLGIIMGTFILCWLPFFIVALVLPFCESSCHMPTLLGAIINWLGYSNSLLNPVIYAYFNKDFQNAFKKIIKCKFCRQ
# [25] = target: 5-hydroxytryptamine receptor 1B (Homo sapiens) (UniProt P28222); assay: Inhibition of 5HT1B receptor at 10 uM
# Sequence of 5-hydroxytryptamine receptor 1B (Homo sapiens) (P28222 whole entry): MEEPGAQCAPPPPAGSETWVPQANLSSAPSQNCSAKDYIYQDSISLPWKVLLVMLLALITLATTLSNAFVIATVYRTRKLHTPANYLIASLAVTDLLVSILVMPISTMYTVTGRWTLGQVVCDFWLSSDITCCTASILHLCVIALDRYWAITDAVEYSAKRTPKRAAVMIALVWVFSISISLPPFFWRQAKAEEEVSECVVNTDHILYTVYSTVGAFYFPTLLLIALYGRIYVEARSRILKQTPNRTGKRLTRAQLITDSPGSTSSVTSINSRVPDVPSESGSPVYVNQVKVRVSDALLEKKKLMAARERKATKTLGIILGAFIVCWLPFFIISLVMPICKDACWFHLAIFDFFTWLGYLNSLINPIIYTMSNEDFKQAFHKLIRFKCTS
# [26] = target: 5-hydroxytryptamine receptor 2A (Homo sapiens) (UniProt P28223); assay: Inhibition of human 5HT2A receptor at 10 uM
# Sequence of 5-hydroxytryptamine receptor 2A (Homo sapiens) (P28223 whole entry): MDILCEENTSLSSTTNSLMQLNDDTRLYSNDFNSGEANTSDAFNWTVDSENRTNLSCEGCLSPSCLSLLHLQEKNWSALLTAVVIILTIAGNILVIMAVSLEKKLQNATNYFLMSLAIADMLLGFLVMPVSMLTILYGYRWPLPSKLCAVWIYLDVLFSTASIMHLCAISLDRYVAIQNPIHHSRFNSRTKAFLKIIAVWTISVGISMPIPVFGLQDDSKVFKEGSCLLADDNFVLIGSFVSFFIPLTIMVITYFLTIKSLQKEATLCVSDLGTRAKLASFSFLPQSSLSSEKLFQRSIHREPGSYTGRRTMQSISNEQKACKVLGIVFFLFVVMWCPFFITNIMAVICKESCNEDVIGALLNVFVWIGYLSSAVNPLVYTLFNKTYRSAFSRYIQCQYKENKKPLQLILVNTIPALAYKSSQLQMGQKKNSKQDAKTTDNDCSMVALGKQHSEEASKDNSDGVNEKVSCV
# [27] = target: Sodium-dependent serotonin transporter (Rattus norvegicus) (UniProt P31652); assay: Inhibition of rat serotonin transporter at 10 uM
# [28] = target: Adrenergic receptor alpha-1 (Homo sapiens) (UniProt P35348+P25100+P35368); assay: Inhibition of non selective adrenergic alpha-1 receptor at 10 uM; type: protein assay
# [29] = target: Beta-1 adrenergic receptor (Homo sapiens) (UniProt P08588); assay: Inhibition of human adrenergic beta 1 receptor at 10 uM
# Sequence of Beta-1 adrenergic receptor (Homo sapiens) (P08588 whole entry, looked up): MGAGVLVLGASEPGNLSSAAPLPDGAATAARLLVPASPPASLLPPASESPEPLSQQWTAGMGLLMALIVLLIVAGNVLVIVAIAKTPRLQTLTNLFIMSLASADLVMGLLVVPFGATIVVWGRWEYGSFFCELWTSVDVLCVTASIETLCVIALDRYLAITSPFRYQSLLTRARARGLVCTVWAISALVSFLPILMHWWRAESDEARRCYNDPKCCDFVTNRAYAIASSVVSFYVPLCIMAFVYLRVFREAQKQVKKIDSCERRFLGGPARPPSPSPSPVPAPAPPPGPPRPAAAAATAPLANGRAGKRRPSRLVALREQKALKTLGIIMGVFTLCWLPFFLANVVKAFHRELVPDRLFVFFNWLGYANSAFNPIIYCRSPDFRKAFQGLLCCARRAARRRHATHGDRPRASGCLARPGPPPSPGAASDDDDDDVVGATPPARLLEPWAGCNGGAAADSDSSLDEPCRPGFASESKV
# [30] = target: Beta-2 adrenergic receptor (Homo sapiens) (UniProt P07550); assay: Inhibition of human recombinant adrenergic beta 2 receptor at 10 uM
# Sequence of Beta-2 adrenergic receptor (Homo sapiens) (P07550 whole entry, looked up): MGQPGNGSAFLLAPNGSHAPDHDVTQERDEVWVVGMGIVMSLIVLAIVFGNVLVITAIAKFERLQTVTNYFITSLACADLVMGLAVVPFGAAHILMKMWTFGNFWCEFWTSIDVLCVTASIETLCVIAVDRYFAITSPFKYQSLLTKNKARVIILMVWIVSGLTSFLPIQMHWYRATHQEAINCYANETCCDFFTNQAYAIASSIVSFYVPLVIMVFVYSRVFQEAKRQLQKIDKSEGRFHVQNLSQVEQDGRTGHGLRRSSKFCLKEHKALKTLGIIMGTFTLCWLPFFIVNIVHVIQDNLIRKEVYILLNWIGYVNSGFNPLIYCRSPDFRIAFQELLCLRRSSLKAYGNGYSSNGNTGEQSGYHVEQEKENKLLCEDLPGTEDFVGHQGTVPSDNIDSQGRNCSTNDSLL
# Rattus norvegicus [31] = species on record: Rattus norvegicus; assay: Inhibition of rat calcium channel L type at benzothiazepine site at 10 uM
# T1 sequence (P51685 whole entry): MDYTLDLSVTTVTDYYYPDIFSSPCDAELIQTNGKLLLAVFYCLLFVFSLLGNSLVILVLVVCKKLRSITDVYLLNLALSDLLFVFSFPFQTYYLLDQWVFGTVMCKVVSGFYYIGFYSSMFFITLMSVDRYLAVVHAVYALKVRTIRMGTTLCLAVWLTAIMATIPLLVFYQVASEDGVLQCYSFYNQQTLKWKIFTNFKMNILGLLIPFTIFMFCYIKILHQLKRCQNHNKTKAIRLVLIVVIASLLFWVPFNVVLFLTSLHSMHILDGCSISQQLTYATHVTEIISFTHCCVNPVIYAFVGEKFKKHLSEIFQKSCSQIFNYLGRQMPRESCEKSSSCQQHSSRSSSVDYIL
compound,measurement,setting,value
CCOC(=O)N1CCC(NS(=O)(=O)c2ccc(NC(=O)c3ccccc3)c3ccccc23)CC1,Ki,[1],0.17 nM
same,half-life,[2],0.5 h
COc1ccc(NS(=O)(=O)c2ccc(NC(=O)c3ccccc3)c3ccccc23)cc1,Ki,[1],42.6 nM
same,IC50,[3],150 nM
CCNC(=O)N1CCC(NS(=O)(=O)c2ccc(NC(=O)c3ccccc3C)c3ccccc23)CC1,Ki,[1],2.2 nM
same,Papp A→B,[4],1.9 ×10⁻⁶ cm/s
same,Papp B→A,[5],22 ×10⁻⁶ cm/s
same,CLint scaled,[6],46.7 mL/min/kg
same,efflux ratio,[7],11
CCOC(=O)N1CCC(NS(=O)(=O)c2ccc(NC(=O)c3ccccc3C)c3ccccc23)CC1,inhibition,Rattus norvegicus [8],5.81%
same,inhibition,[9],-1.01%
same,inhibition,[10],-5.14%
same,inhibition,[11],-9.19%
same,inhibition,[12],9.16%
same,inhibition,[13],15.6%
same,inhibition,Rattus norvegicus [14],21.4%
same,IC50,Cytochrome P450 3A4,> 10000 nM
same,Ki,[1],1.6 nM
same,Papp A→B,[4],17 ×10⁻⁶ cm/s
same,Papp B→A,[5],24 ×10⁻⁶ cm/s
same,half-life,[2],8.2 h
same,bioavailability,[15],2%
same,Ki,[16],> 10000 nM
same,half-life,[17],2.6 h
same,Vd,[18],1.6 L/kg
same,clearance,[19],23.3 mL/min/kg
same,bioavailability,[20],10%
same,half-life,[21],3.7 h
same,Vd,[22],1.5 L/kg
same,clearance,[23],7 mL/min/kg
same,inhibition,[24],10.5%
same,inhibition,[25],7.13%
same,inhibition,[26],18.4%
same,inhibition,[27],12%
same,inhibition,[28],-8.21%
same,inhibition,[29],2.44%
same,inhibition,[30],21.5%
same,inhibition,Rattus norvegicus [31],10.2%
same,CLint scaled,[6],95 mL/min/kg
same,efflux ratio,[7],1.4
CCCC(=O)N1CCC(NS(=O)(=O)c2ccc(NC(=O)c3ccccc3C)c3ccccc23)CC1,Ki,[1],0.3 nM
same,Papp A→B,[4],25 ×10⁻⁶ cm/s
same,Papp B→A,[5],34 ×10⁻⁶ cm/s
same,IC50,[3],0.3 nM
same,CLint scaled,[6],51.7 mL/min/kg
same,efflux ratio,[7],1.3
Cc1ccccc1C(=O)Nc1ccc(S(=O)(=O)NC2CCN(C(=O)OCCCN3CCc4ccccc4C3)CC2)c2ccccc12,IC50,[3],28.6 nM
CCCCc1ccc(C(=O)Nc2ccc(S(=O)(=O)NC3CCN(C(=O)CCC)CC3)c3ccccc23)cc1,IC50,[3],15.3 nM
CCCC(=O)N1CCC(NS(=O)(=O)c2ccc(NC(=O)C(CC)CC)c3ccccc23)CC1,IC50,[3],638 nM
